Assay results reported in patent publication US20030138508A1 (priority 2001, published 2003).

Key:
[1] = assay type: physicochemical
[2] = system: Male ICR mice; conditions: mouse, in vivo, iv
[3] = system: Male ICR mice; conditions: mouse, in vivo, iv; remark: listed apart in the source
[4] = system: Male ICR mice; conditions: mouse, in vivo, iv, 0.7 mg/kg

SMILES: CCCCCc1cc(O)c2c(c1)OC(C)(C)[C@@H]1CCC(C)=C[C@@H]21 [THC, Δ^9-Tetrahydrocannabinol]
- recovery from aerosol [1]: ~87.5%
- LD50 [95% CL's] [2]: 75.4 [66.5-85.5] mg/kg
- inactive dose [3]: 0.7 mg/kg
- TI [4]: 47
